Laboratory results taken from US20200308222A1, “ANTIMICROBIAL TETRAPEPTIDES” (DSM IP ASSETS B.V., priority 2017, published 2020).
Non-standard residues stand in square brackets, D forms with d. Residues, ends and D or L forms follow the SMILES beside them. *: point of attachment. 2Nal = N[C@@H](Cc1ccc2ccccc2c1)C(=O)O; d2Nal = N[C@H](Cc1ccc2ccccc2c1)C(=O)O; Butanoyl(4-Ph) = O=C(CCCc1ccccc1)*; Dab = NCC[C@H](N)C(=O)O

Legend:
Assay in all cases: Minimum inhibitory concentration (MIC), liquid media method in 96-well plates
[1] = test system: B. subtilis (ATCC 6633); type: cell-based, Bacillus subtilis; conditions: 1,2×10^5 cfu/ml per well; incubated 48 hours at 32,5° C.; turbidity read-out
Description: (§1) The peptides are dissolved in culture medium at 400 ppm. A control in the microbiological medium alone and a control consisting of Phenonip® prepared to 5% (v/v) directly in the microbiological medium was used. The determination of minimal inhibitory concentration of each product is performed according to a liquid media method adapted in 96-wells plates. To determine the minimum inhibitory concentration (MIC), the peptides are tested in serial dilutions (½ to ½ for 8 dilutions) directly in the liquid culture medium to favor the growth of bacteria in microplate 96 wells. Then, each point of dilution is contaminated with each strain at about 7×10^5 cfu/ml for S. aureus (ATCC 6538), 5.5×10^5 cfu/ml for P. acnes (ATCC 11827) and 1,2×10^5 cfu/ml for B. subtilis (ATCC 6633) per well. Finally, plates are incubated 48 hours at 32, 5° C.±2.5° C., taking care to respect the respiratory type of each strain. […] The last dilution corresponding to the absence of bacterial growth is taken as minimum inhibitory concentration (MIC) for the microbial strain considered.

[2] = test system: P. acnes (ATCC 11827); type: cell-based, Propionibacterium acnes; conditions: 5.5×10^5 cfu/ml per well; incubated 48 hours at 32,5° C.; turbidity read-out
Description: as §1

[3] = test system: S. aureus (ATCC 6538); type: cell-based, Staphylococcus aureus; conditions: about 7×10^5 cfu/ml per well; incubated 48 hours at 32,5° C.; turbidity read-out
Description: as §1

SMILES	MIC values B. subtilis [1] [ppm]	MIC values P. acnes [2] [ppm]	MIC values S. aureus [3] [ppm]
N=C(N)NCCC[C@H](NC(=O)[C@@H](Cc1ccccc1)NC(=O)[C@H](Cc1c[nH]cn1)NC(=O)CCCc1ccccc1)C(=O)N[C@@H](Cc1c[nH]c2ccccc12)C(=O)NCC(O)CO (stereo partly drawn) [I-h, PhBu-His-D-Phe-Arg-Trp-NH—CH2—CH(OH)—CH2OH *2TFA]	317		
COc1ccc(CCCC(=O)N[C@@H](Cc2c[nH]cn2)C(=O)N[C@H](Cc2ccccc2)C(=O)N[C@@H](CCCNC(=N)N)C(=O)N[C@@H](Cc2c[nH]c3ccccc23)C(N)=O)cc1 [I-c, 4-MeO—PhBu-His-D-Phe-Arg-Trp-NH2 × 2 AcOH]	200		
N=C(N)NCCC[C@H](NC(=O)[C@@H](Cc1ccccc1)NC(=O)[C@H](Cc1c[nH]cn1)NC(=O)CCCc1ccccc1)C(=O)N[C@H](Cc1ccc2ccccc2c1)C(N)=O [I-b, PhBu-His-D-Phe-Arg-D-2NaphAla-NH2 *2TFA] ({Butanoyl(4-Ph)}-H[dF]R[d2Nal]-NH2)	100	400	
CCCCCCCCNC(=O)[C@H](Cc1c[nH]c2ccccc12)NC(=O)[C@H](CCCNC(=N)N)NC(=O)[C@@H](Cc1ccccc1)NC(=O)[C@H](Cc1c[nH]cn1)NC(=O)CCCc1ccccc1 [I-g, PhBu-His-D-Phe-Arg-Trp-NH-Octyl *2TFA]	252		200
N=C(N)NCCC[C@H](NC(=O)[C@@H](Cc1ccccc1)NC(=O)[C@H](Cc1c[nH]cn1)NC(=O)CCCc1ccccc1)C(=O)N[C@@H](Cc1c[nH]c2ccccc12)C(=O)NCc1ccccc1 [I-f, PhBu-His-D-Phe-Arg-Trp-NH-Bn *2TFA]	252		400
NCC[C@H](NC(=O)[C@@H](Cc1ccccc1)NC(=O)[C@H](Cc1c[nH]cn1)NC(=O)CCCc1ccccc1)C(=O)N[C@@H](Cc1c[nH]c2ccccc12)C(N)=O [I-e, PhBu-His-D-Phe-Dab-Trp-NH2 *2TFA] ({Butanoyl(4-Ph)}-H[dF][Dab]W-NH2)	400		
CCCN(CCC)C(=O)[C@H](Cc1c[nH]c2ccccc12)NC(=O)[C@H](CCCNC(=N)N)NC(=O)[C@@H](Cc1ccccc1)NC(=O)[C@H](Cc1c[nH]cn1)NC(=O)CCCc1ccccc1 [I-d, PhBu-His-D-Phe-Arg-Trp-N(Propyl)2 *2TFA]	15.6	125	31.3
N=C(N)NCCC[C@H](NC(=O)[C@@H](Cc1ccccc1)NC(=O)[C@H](Cc1c[nH]cn1)NC(=O)CCCc1ccccc1)C(=O)N[C@@H](Cc1ccc2ccccc2c1)C(N)=O [I-a, PhBu-His-D-Phe-Arg-L-2NaphAla-NH2 *2TFA] ({Butanoyl(4-Ph)}-H[dF]R[2Nal]-NH2)	62.5	500	125
